Where a name gives a salt, the structure may show the parent alone. Read-outs that look alike come from different tables or passages of the source.
Columns and labels:
D2 receptor = D2 receptor (Homo sapiens, UniProt P14416); test: Filtration binding assay, dopamine (Spiperone-I125)
mu opioid receptor = mu opioid receptor (Homo sapiens, UniProt P35372); test: Filtration binding assay: mu opioid receptor
kappa opioid receptor = kappa opioid receptor (Homo sapiens, UniProt P41145); test: Filtration binding assay: kappa opioid receptor
kappa opioid receptor, sequence (P41145 whole entry): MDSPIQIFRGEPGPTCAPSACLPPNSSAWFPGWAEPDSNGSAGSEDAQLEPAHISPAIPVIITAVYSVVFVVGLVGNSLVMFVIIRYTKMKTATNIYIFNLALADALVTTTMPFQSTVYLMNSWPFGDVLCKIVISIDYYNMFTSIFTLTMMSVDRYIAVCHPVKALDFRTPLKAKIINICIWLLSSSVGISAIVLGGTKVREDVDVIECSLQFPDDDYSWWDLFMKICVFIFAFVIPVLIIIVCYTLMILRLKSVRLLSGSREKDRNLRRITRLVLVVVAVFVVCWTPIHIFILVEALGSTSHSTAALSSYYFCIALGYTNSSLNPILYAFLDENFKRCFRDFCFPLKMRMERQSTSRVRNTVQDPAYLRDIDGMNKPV

delta opioid receptor = delta opioid receptor (Homo sapiens, UniProt P41143); test: Filtration binding assay: delta opioid receptor
delta opioid receptor, sequence (P41143 whole entry): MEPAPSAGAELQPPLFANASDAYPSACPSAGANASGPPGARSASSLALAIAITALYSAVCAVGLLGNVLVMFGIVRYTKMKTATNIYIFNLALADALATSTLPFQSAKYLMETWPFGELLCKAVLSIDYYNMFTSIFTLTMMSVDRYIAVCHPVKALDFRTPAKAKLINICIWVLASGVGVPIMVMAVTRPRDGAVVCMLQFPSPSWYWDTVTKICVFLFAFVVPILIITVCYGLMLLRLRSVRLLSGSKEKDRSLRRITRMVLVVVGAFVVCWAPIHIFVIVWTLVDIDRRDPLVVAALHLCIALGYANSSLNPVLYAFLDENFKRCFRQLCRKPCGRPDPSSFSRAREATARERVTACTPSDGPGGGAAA

rats = conditions: rat, in vivo, ip

D2 receptor, sequence (P14416 whole entry): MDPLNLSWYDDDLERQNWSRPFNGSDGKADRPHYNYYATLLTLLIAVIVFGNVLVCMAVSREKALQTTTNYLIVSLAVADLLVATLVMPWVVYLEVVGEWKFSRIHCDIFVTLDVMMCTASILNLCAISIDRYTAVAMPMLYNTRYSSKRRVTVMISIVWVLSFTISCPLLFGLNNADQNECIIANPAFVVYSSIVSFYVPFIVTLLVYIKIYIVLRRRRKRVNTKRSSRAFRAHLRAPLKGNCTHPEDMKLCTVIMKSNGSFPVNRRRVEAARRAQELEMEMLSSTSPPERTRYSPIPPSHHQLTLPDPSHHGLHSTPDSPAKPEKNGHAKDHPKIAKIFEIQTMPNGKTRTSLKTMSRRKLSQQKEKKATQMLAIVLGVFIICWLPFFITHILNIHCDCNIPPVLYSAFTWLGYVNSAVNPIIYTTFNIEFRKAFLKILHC
mu opioid receptor, sequence (P35372 whole entry): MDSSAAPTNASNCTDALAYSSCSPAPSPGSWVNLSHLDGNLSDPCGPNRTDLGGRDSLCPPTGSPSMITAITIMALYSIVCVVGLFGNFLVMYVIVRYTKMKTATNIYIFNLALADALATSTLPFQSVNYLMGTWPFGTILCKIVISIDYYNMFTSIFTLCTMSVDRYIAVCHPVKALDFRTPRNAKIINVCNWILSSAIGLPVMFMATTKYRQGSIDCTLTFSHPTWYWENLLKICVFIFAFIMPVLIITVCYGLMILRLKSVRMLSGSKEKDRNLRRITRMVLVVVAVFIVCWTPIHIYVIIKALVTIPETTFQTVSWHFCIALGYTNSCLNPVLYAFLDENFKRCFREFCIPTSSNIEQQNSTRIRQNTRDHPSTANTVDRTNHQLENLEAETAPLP

## O=C1N(C[C@@H](O)CNc2ccncc2)CN(c2ccc(F)cc2)C12CCN(C1Cc3cccc4cccc1c34)CC2 (stereo partly shown) [Compound #327, 8-Acenaphthen-1-yl-1-(4-fluoro-phenyl)-3-[2-hydroxy-3-(pyridin-4-ylamino)-propyl]-1,3,8-triaza-spiro[4.5]decan-4-one]
D2 receptor
  IC50: 0.387 µM

## CCN(C)C[C@H](O)CN1CN(c2ccc(F)cc2)C2(CCN(Cc3cccc4cccc(C)c34)CC2)C1=O [Compound #440, 3-[3-(Ethyl-methyl-amino)-2-hydroxy-(S)-propyl]-1-(4-fluoro-phenyl)-8-(8-methyl-naphthalen-1-ylmethyl)-1,3,8-triaza-spiro[4.5]decan-4-one]
Mu opioid receptor
  IC50: > 10 µM
Kappa opioid receptor
  IC50: > 10 µM
D2 receptor; D2 receptor, Spiperone-I125, read-out: IC50
  IC50: 1.52 µM

## CCN(C)C[C@H](O)CN1CN(c2ccc(F)cc2)C2(CCN([C@H]3Cc4cccc5cccc3c45)CC2)C1=O [compound 433]
D2 receptor
  IC50: 3.52 µM

## COc1ccc(CCN(C)C[C@@H](O)CN2CN(c3ccc(F)cc3)C3(CCN([C@@H]4Cc5cccc6cccc4c56)CC3)C2=O)cc1OC [Compound #339, (R)-8-Acenaphthen-1-yl-3-(3-{[2-(3,4-dimethoxy-phenyl)-ethyl]-methyl-amino}-(R)-2-hydroxy-propyl)-1-(4-fluoro-phenyl)-1,3,8-triaza-spiro[4.5]decan-4-one]
Mu opioid receptor
  IC50: 0.21 µM
Kappa opioid receptor
  IC50: 0.18 µM
Delta opioid receptor
  IC50: > 10 µM

## COc1ccc(CCNC[C@H](O)CN2CN(c3ccc(F)cc3)C3(CCN(C4Cc5cccc6cccc4c56)CC3)C2=O)cc1OC (mixture of isomers) [compound 48]
Mu opioid receptor
  IC50: 0.54 µM
Kappa opioid receptor
  IC50: 0.17 µM
Delta opioid receptor
  IC50: > 10 µM

## Cc1cccc2cccc(CN3CCC4(CC3)C(=O)N(C[C@H](O)CNCCCN(C)C)CN4c3ccc(F)cc3)c12 [Compound #666, 3-[3-(3-Dimethylamino-propylamino)-2-(R)-hydroxy-propyl]-1-(4-fluoro-phenyl)-8-(8-methyl-naphthalen-1-ylmethyl)-1,3,8-triaza-spiro[4.5]decan-4-one]
Mu opioid receptor
  Ki: 2.59 µM
Kappa opioid receptor
  Ki: 0.14 µM
Delta opioid receptor
  Ki: > 5 µM

## COc1ccc(CCN(C)C[C@H](O)CN2CN(c3ccc(F)cc3)C3(CCN(Cc4cccc5ccccc45)CC3)C2=O)cc1OC [compound 256]
Mu opioid receptor
  IC50: 5.45 µM
Kappa opioid receptor
  IC50: 1.18 µM
Delta opioid receptor
  IC50: > 10 µM

## CCCCN(Cc1ccccc1)C[C@H](O)CN1CN(c2ccccc2)C2(CCN(C3Cc4cccc5c4[C@@H](CCC5)C3)CC2)C1=O (stereo partly shown) [compound 54]
Mu opioid receptor
  IC50: 0.35 µM
Kappa opioid receptor
  IC50: 0.11 µM
Delta opioid receptor
  IC50: > 10 µM

## CC1(C)[C@H]2CC=C(CN3CCC4(CC3)C(=O)N(C[C@@H]3CO3)CN4c3ccc(F)cc3)[C@@H]1C2 [compound 727]
Mu opioid receptor
  Ki: 0.12 µM
Kappa opioid receptor
  Ki: 0.21 µM
Delta opioid receptor
  Ki: > 5 µM

## NC[C@@H](O)CN1CN(c2ccc(F)cc2)C2(CCN(CC3CCCCCCC3)CC2)C1=O [Compound #620, 3-(3-Amino-2-(R)-hydroxy-propyl)-8-cyclooctylmethyl-1-(4-fluoro-phenyl)-1,3,8-triaza-spiro[4.5]decan-4-one]
Mu opioid receptor
  Ki: 0.28 µM
Kappa opioid receptor
  Ki: 0.19 µM
Delta opioid receptor
  Ki: > 5 µM

## Cc1cccc2cccc(CN3CCC4(CC3)C(=O)N(C[C@H](O)CNCCCO)CN4c3ccc(F)cc3)c12 [Compound #651, 1-(4-Fluoro-phenyl)-3-[2-(R)-hydroxy-3-(3-hydroxy-propylamino)-propyl]-8-(8-methyl-naphthalen-1-ylmethyl)-1,3,8-triaza-spiro[4.5]decan-4-one]
Mu opioid receptor
  Ki: 0.67 µM
Kappa opioid receptor
  Ki: 0.31 µM
Delta opioid receptor
  Ki: > 5 µM

## O=C1N(C[C@@H](O)CNCCN2CCOCC2)CN(c2ccc(F)cc2)C12CCN(CC1CCCCCCC1)CC2 [Compound #1]
Mu opioid receptor
  IC50: 0.62 µM
Kappa opioid receptor
  IC50: 0.13 µM
Delta opioid receptor
  IC50: > 10 µM

## Cc1cccc2cccc(CN3CCC4(CC3)C(=O)N(C[C@H](O)CNCCN(C)C(=O)OC(C)(C)C)CN4c3ccc(F)cc3)c12 [compound 667]
Mu opioid receptor
  Ki: 0.77 µM
Kappa opioid receptor
  Ki: 0.45 µM
Delta opioid receptor
  Ki: 4.14 µM

## O=C1N(C[C@H](O)CNCCc2c[nH]cn2)CN(c2ccc(F)cc2)C12CCN(CC1CCCCCCC1)CC2 [Compound #4]
Mu opioid receptor
  IC50: 0.16 µM
Kappa opioid receptor
  IC50: 0.11 µM
Delta opioid receptor
  IC50: > 10 µM

## O=C1N(C[C@H](O)CNCc2cc(C(F)(F)F)cc(C(F)(F)F)c2)CN(c2ccc(F)cc2)C12CCN(CC1CCCCCCC1)CC2 [Compound #3]
Mu opioid receptor
  IC50: 4.05 µM
Kappa opioid receptor
  IC50: 0.44 µM
Delta opioid receptor
  IC50: 9.16 µM

## O=C1N(C[C@@H](O)CN2CCN(c3cccc(C(F)(F)F)c3)CC2)CN(c2ccc(F)cc2)C12CCN(CC1CCCCCCC1)CC2 [Compound #66]
Mu opioid receptor
  IC50: 0.55 µM
Kappa opioid receptor
  IC50: 0.13 µM
Delta opioid receptor
  IC50: 5.93 µM

## CC(C)(C)N(Cc1ccccc1)C[C@H](O)CN1CN(c2ccc(F)cc2)C2(CCN(Cc3cccc4ccccc34)CC2)C1=O [compound 250]
Mu opioid receptor
  IC50: 1.2 µM
Kappa opioid receptor
  IC50: 0.38 µM
Delta opioid receptor
  IC50: > 10 µM

## CCCCN(Cc1ccccc1)C[C@H](O)CN1CN(c2ccc(F)cc2)C2(CCN(CC3CCCCCCC3)CC2)C1=O [Compound #64, 3-[3-(Benzyl-butyl-amino)-2-(S)-hydroxy-propyl]-8-cyclooctylmethyl-1-(4-fluoro-phenyl)-1,3,8-triaza-spiro[4.5]decan-4-one]
rats; 0.3 mg/kg
  % Increase Mean No. of Shocks: −10%
rats; 1 mg/kg
  % Increase Mean No. of Shocks: 25%
rats; 3 mg/kg
  % Increase Mean No. of Shocks: 96%
rats; 10 mg/kg
  % Increase Mean No. of Shocks: 150%
rats; 30 mg/kg
  % Increase Mean No. of Shocks: −26%

## O=C1N(C[C@@H](O)CNCC23CC4CC(CC(C4)C2)C3)CN(c2ccc(F)cc2)C12CCN(CC1CCCCCCC1)CC2 [compound 17]
Mu opioid receptor
  IC50: 0.65 µM
Kappa opioid receptor
  IC50: 0.25 µM
Delta opioid receptor
  IC50: > 10 µM

## O=C1N(C[C@@H](O)CNCc2ccc(F)cc2F)CN(c2ccc(F)cc2)C12CCN(CC1CCCCCCC1)CC2 [Compound #7]
Mu opioid receptor
  IC50: 1.38 µM
Kappa opioid receptor
  IC50: 0.13 µM
Delta opioid receptor
  IC50: 7.11 µM

## CC(=O)NC(CSC[C@H](O)CN1CN(c2ccc(F)cc2)C2(CCN(CC3CCCCCCC3)CC2)C1=O)C(=O)O (stereo partly shown) [compound 100]
Mu opioid receptor; mean where tested more than once, read-out: Mu IC50
  IC50: 0.23 µM
Kappa opioid receptor; mean where tested more than once, read-out: Kappa IC50
  IC50: 0.28 µM
Delta opioid receptor; mean where tested more than once, read-out: Delta IC50
  IC50: > 10 µM

## COC(=O)c1ccc(CNC[C@H](O)CN2CN(c3ccc(F)cc3)C3(CCN(C4Cc5cccc6cccc4c56)CC3)C2=O)cc1 (mixture of isomers) [compound 348]
Mu opioid receptor
  IC50: 5.42 µM
Kappa opioid receptor
  IC50: 0.93 µM
Delta opioid receptor
  IC50: > 10 µM

## O=C1N(C[C@H]2CO2)CN(c2ccc(F)cc2)C12CCN(Cc1ccc3ccccc3c1)CC2 [compound 542]
Mu opioid receptor
  IC50: 0.16 µM
Kappa opioid receptor
  IC50: 0.53 µM
Delta opioid receptor
  IC50: > 10 µM

## CC1CN(C[C@H](O)CN2CN(c3ccc(F)cc3)C3(CCN(CC4CCCCCCC4)CC3)C2=O)CC(C)O1 (stereo partly shown) [compound 75]
Mu opioid receptor
  IC50: 0.98 µM
Kappa opioid receptor
  IC50: 0.3 µM
Delta opioid receptor
  IC50: > 10 µM

## COCCCNC[C@H](O)CN1CN(c2ccc(F)cc2)C2(CCN(Cc3cccc4cccc(C)c34)CC2)C1=O [compound 650]
Mu opioid receptor
  Ki: 0.74 µM
Kappa opioid receptor
  Ki: 0.46 µM
Delta opioid receptor
  Ki: > 5 µM

## O=C1N(C[C@@H](O)CNCCc2c[nH]cn2)CN(c2ccc(F)cc2)C12CCN(CC1CCCCCCC1)CC2 [Compound #28]
Mu opioid receptor
  IC50: 0.41 µM
Kappa opioid receptor
  IC50: 0.18 µM
Delta opioid receptor
  IC50: > 10 µM

## NC[C@@H](O)CN1CN(c2ccccc2)C2(CCN([C@H]3CC[C@@H]4CCCc5cccc3c54)CC2)C1=O [Compound #640, dihydrochloride]
Mu opioid receptor
  Ki: 0.12 µM
Kappa opioid receptor
  Ki: 0.21 µM
Delta opioid receptor
  Ki: > 5 µM

## COc1ccc(CCNC[C@@H](O)CN2CN(c3ccc(F)cc3)C3(CCN(C4Cc5cccc6cccc4c56)CC3)C2=O)cc1OC (mixture of isomers) [compound 300]
Mu opioid receptor
  IC50: 0.51 µM
Kappa opioid receptor
  IC50: 0.13 µM
Delta opioid receptor
  IC50: 4.84 µM

## O=C1N(C[C@@H](O)CNCCN2CCOCC2)CN(c2ccc(F)cc2)C12CCN(Cc1cccc3ccccc13)CC2 [compound 251]
Mu opioid receptor
  IC50: 1.58 µM
Kappa opioid receptor
  IC50: 0.45 µM
Delta opioid receptor
  IC50: > 10 µM

## O=C1N(C[C@@H](O)CNc2ccncc2)CN(c2ccc(F)cc2)C12CCN(CC1CCCCCCC1)CC2 [Compound #36, 8-Cyclooctylmethyl-1-(4-fluoro-phenyl)-3-[2-(S)-hydroxy-3-(pyridin-4-ylamino)-propyl]-1,3,8-triaza-spiro[4.5]decan-4-one]
Mu opioid receptor
  IC50: 1.76 µM
Kappa opioid receptor
  IC50: 0.23 µM
Delta opioid receptor
  IC50: 1.76 µM

## CCN(Cc1ccc(C)cc1)C[C@H](O)CN1CN(c2ccc(F)cc2)C2(CCN(Cc3cccc4ccccc34)CC2)C1=O [compound 252]
Mu opioid receptor
  IC50: 3.7 µM
Kappa opioid receptor
  IC50: 1.34 µM
Delta opioid receptor
  IC50: > 10 µM

## COc1ccc(CNC[C@H](O)CN2CN(c3ccc(F)cc3)C3(CCN(Cc4cccc5cccc(C)c45)CC3)C2=O)cc1 [compound 398]
Mu opioid receptor
  IC50: > 10 µM
Kappa opioid receptor
  IC50: 0.25 µM
Delta opioid receptor
  IC50: > 10 µM
